The record followed here is a melting point compilation (Tetko et al.; mined from patent text by program, amines drawn as free bases though some values may be those of a salt).

Each structure is given as a SMILES string.

In the case of `N#Cc1ccc2oc(CCCc3cc4cc(C#N)ccc4o3)cc2c1`, the melting point fell in the range of 153 to 154 °C. The figure for `CN1CCC(OC2c3cccc(Cc4ccccc4)c3CCn3cc(-c4ccccc4)nc32)CC1` (configuration not stated) is 66 °C; for `CC(=O)OC1CSC(Oc2ccc(I)nc2F)C(OC(C)=O)C1OC(C)=O` (configuration not stated) it is 234 °C. Turning to `CCOC(=O)CC[C@H](NC(=O)/C=C/C(=O)c1ccccc1)C(=O)OCC`, the melting point fell in the range of 83 to 85 °C. The figure for `c1ccc2c(OC[C@H]3CCCN3c3ccnc4ncnn34)cccc2c1` is 74 to 75 °C; for `CC(C)C[C@H](NC(=O)OCc1ccccc1)C(=O)N[C@@H](CCc1ccccc1)C(=O)CSCc1ccco1` it is 73 to 77 °C; for `Cc1nnc(-c2ccc3occ(-c4cc(Cl)ccc4Cl)c3c2)o1` it is 185 to 186 °C.

Molecule `CCOC(=O)c1ccccc1CN1C(=O)C(CCO)Oc2ccccc21` (configuration not stated) returned a melting point of 114 to 116 °C.

Molecule `O=C1CC(c2ccc(F)cc2)CC(=O)O1` displayed a melting point of 99 to 104 °C. Turning to `CCCNC(=O)C1(CCCCc2ccc(NC(=O)c3ccccc3)cc2)c2ccccc2-c2ccccc21`, the melting point fell in the range of 171 to 173 °C. In the case of `O=C(c1cccnc1)c1cc2cc(Br)ccc2s1` it was 147 to 148 °C; in that of `CSc1ccc(-n2cnc3ccc(-c4nnc(CCc5cccc(C#N)c5)o4)cc32)cc1`, 185 to 186 °C; in that of `CCCCSc1cc(C(=O)OCC)cc(S(N)(=O)=O)c1Cl`, 160 to 162 °C. In the case of `O=[N+]([O-])C=C1NCCN1Cc1ccc(F)nc1` it was 139 to 142 °C. Turning to `CCOC(=O)c1sc2cc(OCc3ccccc3)ccc2c1S(=O)c1ccccc1` (configuration not stated), the melting point lay within 141 to 142 °C. The figure for `CC(C)(C)Oc1ccc(OC(=O)N2CCOCC2)cc1` is 129 to 130 °C. Molecule `Cc1cc2c(-c3cccc(-c4noc(=O)[nH]4)c3)c(CC(=O)Nc3ccc(F)cc3C(F)(F)F)c(=O)oc2cc1Cl` yielded a melting point of 285 to 287 °C. `COC(=O)c1ccc(CC(C)NCC(O)c2ccc(O)c(CO)c2)c(F)c1` (configuration not stated) had a melting point of 97 to 100 °C.

`CCC(CC)(OCc1oc(-c2ccc(Cl)cc2)nc1C)C(=O)O`: the melting point was 157 °C.

`CCOC(=O)C1(CC(=O)O)C(=O)N(Cc2ccc(Br)cc2F)C(=O)c2cccn21` (configuration not stated) came in with a melting point of 142 to 144 °C. Turning to `Cc1cc(C(=O)NC2CC2)ccc1N1CCNCC1`, the melting point was in the range of 172 to 173 °C. For `CN1CCC(N2C(=O)CN=C(c3ccccc3F)c3cc(Cl)ccc32)CC1`, the melting point is 145 to 146 °C. In the case of `Clc1cnc2c(-c3ccccc3)nc(-c3ccccc3)nc2c1` it was 120 to 121 °C.

Molecule `Cc1c(NC(=O)c2ccc(OC[C@@H]3CCCO3)cc2F)ccc2cc(CNCC(C)(C)O)n(C)c12` yielded a melting point of 132 to 133 °C. For the molecule `CCCCNC(=O)NCCc1nc(-c2ccc(-c3ccccc3)cc2)c[nH]1`, the melting point was found to be 178 °C. The figure for `COCc1c(C(=O)OC(C)C)ncc2[nH]c3cccc(Oc4ccccn4)c3c12` is 188 to 189 °C. In the case of `CCCC(O)C1(c2onc(-c3ccc(O)cc3)c2-c2ccccc2)CC1` (configuration not stated), the melting point fell in the range of 139 to 140 °C. `O=C(NCc1ccc(Cl)cc1)c1cn2c(CSc3ccccc3)cc3cc(CN4CCOCC4)cc(c1=O)c32` had a melting point of 173 to 175 °C. For the molecule `Cc1cc2c(cc1-c1ccncc1)C(=O)C(=O)N2`, the melting point lay within 292 to 294 °C.

Consider `CC(C)(C)NS(=O)(=O)c1cnc(-c2cn(-c3nc(-c4ccc(C(F)(F)F)cc4)cc(C(F)(F)F)n3)cn2)s1`, for which the melting point stood at 281 °C.

Molecule `CN1CCC(N(CCN2CCCC2)S(=O)(=O)c2ccc(Nc3nccc(Nc4ccc(F)cc4)n3)cc2)CC1` had a melting point of 250 °C. `O=C(CCCCCC(c1cc(F)ccc1F)S(=O)(=O)c1ccc(Cl)cc1)N1CCCC1` (configuration not stated) showed a melting point of 106 °C. In the case of `CS(=O)(=O)c1ccc(-c2cc(Br)nc(C(F)(F)F)c2-c2ccc(F)cc2)cc1` it was 188 to 189 °C.

`N#CCCCCn1c(=O)c2ccccc2n(CCCCN2CCC(OC(c3ccccc3)c3ccccc3)CC2)c1=O` displayed a melting point of 119 to 121 °C.

`CNCC1Cc2cc(F)cc(-c3cc(Cl)ccc3Cl)c2O1` (configuration not stated): the melting point lay within 118 to 120 °C. The figure for `COc1cc2nc(N)nc(-c3ccc(Br)cc3CO)c2cc1OC` is 222 to 223 °C; for `Cc1cn2c(=O)c3c(Cl)cccc3nc2s1` it is 235 to 236 °C. On to `COCCOc1ccc(O)cc1`, for which the melting point amounted to 97.9 °C.

`CN1CCOc2ccc(/C=C/C(=O)O)cc21` registered a melting point of 190 °C. With `CCCOC(=O)N=P(c1ccccc1)(c1ccccc1)c1ccccc1`, the melting point was 90 to 91 °C. In the case of `COc1cc(C(=S)N2CCNCC2)cc(OC)c1OC` it was 116 to 118 °C; in that of `Cc1ccc(C(C)(C)C)c(SC2=C(O)CC(CCc3ccccc3)(c3ccc(OCCN4CCNCC4)cc3)OC2=O)c1` (configuration not stated), 175 °C.

The molecule `CCOC(=O)c1cc(C=O)[nH]n1` came in with a melting point of 133 to 134 °C. For the molecule `CCCCC/C=C\C/C=C\CCCCCCC[C@@H](C[C@@H]1OC(=O)[C@H]1CC)OC(=O)[C@H](CC(C)C)NC=O`, the melting point lay in the range of 48 to 53 °C. The figure for `COC(=O)CS(=O)(=O)c1ccc(N2CCN(c3ccc(C#N)cc3)C2=O)cc1` is 246 to 249 °C. As for `CN(C)C/C=C\c1ncccc1OCCO`, the melting point was 71 °C.

As to `CC(=O)SCCN(CCc1ccccc1)C(=O)N[C@@H](Cc1ccc([N+](=O)[O-])cc1)C(=O)NCCC(=O)O`, the melting point lay within 114 to 118 °C. `CC(=O)c1cc(-c2ccc(C)cc2)c2c(c1)C(C)(C)CCC2(C)C` returned a melting point of 102 °C.

Turning to `Cc1nnc2c(-c3cccc(C(F)(F)F)c3)cncn12`, the melting point was in the range of 157 to 159 °C. The molecule `CC(C)(C)OC(=O)NCCCc1ccc(OCCC2Oc3ccccc3N(Cc3cccc(Cl)c3)C2=O)cc1` (configuration not stated) registered a melting point of 75 to 81 °C. The figure for `NS(=O)(=O)c1ccc(-c2[nH]c3ccc(Cl)cc3c2-c2cccc(Cl)c2)cc1` is 249 to 251 °C; for `Clc1ccc(C(=Cn2cnnn2)OCc2ccccc2)c(Cl)c1` it is 92 °C.

`CC(=O)c1cc2c(cc1Cl)C(C)(C)CC2(C)C` came in with a melting point of 69 to 71 °C. The molecule `CC(C)c1nc(CO)n(Cc2ccccc2)c1Sc1cc(Cl)cc(Cl)c1` yielded a melting point of 121 to 124 °C. On to `O=c1nc(-c2cccc(CN3CCC(O)(c4ccc(Cl)cc4)CC3)n2)sc2ccccc12`, for which the melting point lay within 151 to 153 °C. The figure for `O=C(O)Cc1noc(CC(=O)O)n1` is 109 to 111 °C; for `CCN1CS(=O)c2cccc(Cl)c21` (configuration not stated) it is 94 to 98 °C. For `O=c1c2cc3ccccc3cc2nc(CSc2ncnc3[nH]cnc23)n1-c1ccccc1Cl`, the melting point lay within 248 to 254 °C. `Cc1c(CCCl)c(=O)oc2cc(O)cc(O)c12` gave a melting point of 218 to 220 °C.

`O=C1CCN(C(=S)Nc2ccc(Cl)cc2)N1c1ccccc1`: the melting point fell in the range of 136 to 139 °C. The figure for `CCOC(=O)N1CCC(Nc2nc3ccccc3n2Cc2ccc(CO)o2)CC1` is 138 to 140 °C; for `N#Cc1c[nH]c(Cl)c1-c1ccccc1` it is 140 to 142 °C.
